Results from patent publication US9371336B2, “Compounds for treating spinal muscular atrophy” (PTC Therapeutics Inc., priority 2012, dated 2016).

Assays:
[1] = system: gems (Smn-dependent nuclear speckles) in SMA patient fibroblast cells; assay: Gems count (Smn-dependent nuclear speckle count) assay; type: cell-based, human; conditions: SMA Type 1 patient cells, 48 hour, fluorescence microscopy (FIG. 7)
Text: The level of Smn protein directly correlates with the amount of nuclear foci, also known as gems, produced upon staining the cell with a fluorescently labeled anti-Smn antibody (Liu and Dreyfuss, EMBO J., 1996, 15:3555). Gems are multi-protein complexes whose formation is nucleated by the Smn protein and the gems count assay is used to evaluate the level of Smn protein in the cell. As described herein, the gems count assay is used to quantify the level of Smn protein in SMA patient fibroblast cells treated with a test compound.
Cells are thawed and incubated in DMEM-10% FBS for 72 hours, then trypsinized, counted and resuspended to 100,000 cells/mL in DMEM-10% FBS. The cell suspension (2 mL) is plated in a 6-well cell culture plate with a sterile cover slip and incubated for 3 to 5 hours. Test compounds are serially diluted 3.16-fold in 100% DMSO to generate a 7-point dilution curve. […]
Cell culture medium is aspirated from the wells containing cover slips and gently washed three times with cold PBS. […] The number of gems is counted per ≧150 nuclei and % activation is calculated using DMSO and 10 nM bortezomib as controls. For each test compound, the cells are examined at all wavelengths to identify test compounds with inherent fluorescence.

[2] = system: Smn protein; assay: Smn protein assay in tissues of adult C/C-allele SMA mice (HTRF); type: in vivo, mouse; conditions: 50 mg/kg BID for 10 days, relative to vehicle group, p<0.001 by ANOVA, n=10 (FIG. 8)
Experimental: (§1) The Smn HTRF protein assay is used to quantify the level of Smn protein in mouse tissues.
(§2) The tissue samples in Safe-Lock tubes are weighed and the volume of RIPA buffer containing the protease inhibitor cocktail is added based on the weight to volume ratios for each type of tissue: Brain (50 mg/mL), Muscle (50 mg/mL) and Spinal Cord (25 mg/mL).
(§3) Tissues are homogenized using the TissueLyzer by bead milling. 5 mm stainless steel beads are added to the sample and shaken vigorously for 5 minutes at 30 Hz in the TissueLyzer. The samples are then centrifuged for 20 minutes at 14,000×g in a microcentrifuge and the homogenates transferred to the PCR plate. The homogenates are diluted in RIPA buffer to approximately 1 mg/mL for HTRF and approximately 0.5 mg/mL for total protein measurement using the BCA protein assay. For the SMN HTRF assay, 35 μL of the tissue homogenate is transferred to a 384-well plate containing 5 μL of the antibody solution (1:100 dilution of each of the anti-SMNd2 and anti-SMN Kryptate in reconstitution buffer). […] Fluorescence for each well of the plate at 665 nm and 620 nm is measured on an EnVision multilabel plate reader (Perkin-Elmer). The total protein in the tissue homogenate is measured using the BCA assay according to the manufacturer's protocol.
(§4) The normalized fluorescence signal is calculated for each sample, Blank and vehicle control well by dividing the signal at 665 nm by the signal at 620 nm. Normalizing the signal accounts for possible fluorescence quenching due to the matrix effect of the tissue homogenate. The ΔF value (a measurement of Smn protein abundance as a percent value) for each tissue sample well is calculated by subtracting the normalized average fluorescence for the Blank control wells from the normalized fluorescence for each tissue sample well, then dividing this difference by the normalized average fluorescence for the Blank control wells and multiplying the resulting value by 100. The ΔF value for each tissue sample well is divided by the total protein quantity (determined using the BCA assay) for that tissue sample. […]

[3] = system: Smn protein; assay: Smn protein in tissues of neonatal Δ7 SMA mice (HTRF); type: in vivo, mouse; conditions: neonatal SMA Δ7 homozygous knockout mice
Experimental: as §1, §2, §3, §4

Row | Structure (SMILES) | gems (nuclear speckle count) relative to DMSO [1] | total protein-normalized Smn level, brain [2] | total protein-normalized Smn level, muscle [2] | total protein-normalized Smn level, spinal cord [2] | total protein normalized Smn level, brain ([3]; QD IP for 7 days (PND 3 to PND 9) (FIG. 9a)) | total protein normalized Smn level, spinal cord ([3]; QD IP for 7 days (PND 3 to PND 9) (FIG. 9b)) | total protein normalized Smn level, muscle ([3]; QD IP for 7 days (PND 3 to PND 9) (FIG. 9c))
1 | CN1CCN(c2ccc3cc(-c4nc5c(Cl)cccc5s4)c(=O)oc3n2)CC1 [Cpd 5, 3-(4-chloro-1,3-benzothiazol-2-yl)-7-(4-methylpiperazin-1-yl)-2H-pyrano[2,3-b]pyridin-2-one] | progressively more gems | increased | increased | increased |  |  | 
2 | Cc1ccc2nc(-c3cc4ccc(N5CCN(C)CC5)nc4oc3=O)cn2c1 [Cpd 27, 3-(6-methylimidazo[1,2-a]pyridin-2-yl)-7-(4-methylpiperazin-1-yl)-2H-pyrano[2,3-b]pyridin-2-one] |  |  |  |  | dose dependently increased | dose dependently increased | dose dependently increased
